One data set concerns MDA-MB-231. The data set is described as follows: Cytotoxicity against human MDA-MB-231 cells at 1 uM measured after 48 hrs by BrdU colorimetric immunoassay. The data set is classed as toxicity, cell-based. The following applies: mda-mb-231, 48 h.
The subject of a further data set is MCF-10A. The data set is described as follows: Cytotoxicity against human MCF-10A cells at 1 uM measured after 48 hrs by BrdU colorimetric immunoassay. The format is toxicity, cell-based.
The target of a further data set is T1, Aromatase (Homo sapiens, UniProt P11511).
T1 sequence (P11511 whole entry): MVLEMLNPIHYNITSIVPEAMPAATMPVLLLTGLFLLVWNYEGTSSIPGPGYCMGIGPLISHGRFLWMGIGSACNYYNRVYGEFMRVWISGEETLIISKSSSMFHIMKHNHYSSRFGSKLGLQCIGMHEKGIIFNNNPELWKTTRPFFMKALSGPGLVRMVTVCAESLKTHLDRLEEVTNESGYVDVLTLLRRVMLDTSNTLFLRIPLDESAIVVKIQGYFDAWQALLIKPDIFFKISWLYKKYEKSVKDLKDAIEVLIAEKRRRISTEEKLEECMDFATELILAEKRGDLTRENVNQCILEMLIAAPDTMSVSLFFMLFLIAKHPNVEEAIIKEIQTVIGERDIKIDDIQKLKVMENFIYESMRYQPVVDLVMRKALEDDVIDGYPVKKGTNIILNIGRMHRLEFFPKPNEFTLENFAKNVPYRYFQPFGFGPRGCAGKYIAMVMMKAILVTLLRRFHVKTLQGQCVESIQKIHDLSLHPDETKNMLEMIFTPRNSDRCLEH
The data set is classed as cell-based, JEG-3.

For the next data set, the target named is Cytochrome P450 2C9 (Homo sapiens, UniProt P11712).
The next data set has as its target T2, Cytochrome P450 1A2 (Homo sapiens, UniProt P05177).
T2 sequence (P05177 whole entry): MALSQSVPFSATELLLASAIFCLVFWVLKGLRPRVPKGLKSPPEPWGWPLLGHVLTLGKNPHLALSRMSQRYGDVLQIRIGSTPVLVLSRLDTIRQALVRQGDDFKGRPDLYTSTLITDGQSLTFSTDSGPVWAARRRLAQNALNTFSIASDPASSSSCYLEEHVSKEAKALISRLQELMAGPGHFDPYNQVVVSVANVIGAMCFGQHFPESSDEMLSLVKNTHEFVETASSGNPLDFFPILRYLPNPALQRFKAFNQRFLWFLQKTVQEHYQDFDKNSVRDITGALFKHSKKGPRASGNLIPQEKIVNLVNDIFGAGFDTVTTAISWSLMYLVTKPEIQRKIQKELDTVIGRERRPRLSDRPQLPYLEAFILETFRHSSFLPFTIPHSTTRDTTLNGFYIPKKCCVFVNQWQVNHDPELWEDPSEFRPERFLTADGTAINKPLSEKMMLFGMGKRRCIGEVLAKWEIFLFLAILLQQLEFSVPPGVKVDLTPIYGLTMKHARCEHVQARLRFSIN

The target in another data set is Cytochrome P450 2C19 (Homo sapiens, UniProt P33261).
For another data set, the target named is Cytochrome P450 2D6 (Homo sapiens, UniProt P10635).
The next data set deals with Cytochrome P450 3A4 (Homo sapiens, UniProt P08684).
Sequence of Cytochrome P450 3A4 (P08684 whole entry): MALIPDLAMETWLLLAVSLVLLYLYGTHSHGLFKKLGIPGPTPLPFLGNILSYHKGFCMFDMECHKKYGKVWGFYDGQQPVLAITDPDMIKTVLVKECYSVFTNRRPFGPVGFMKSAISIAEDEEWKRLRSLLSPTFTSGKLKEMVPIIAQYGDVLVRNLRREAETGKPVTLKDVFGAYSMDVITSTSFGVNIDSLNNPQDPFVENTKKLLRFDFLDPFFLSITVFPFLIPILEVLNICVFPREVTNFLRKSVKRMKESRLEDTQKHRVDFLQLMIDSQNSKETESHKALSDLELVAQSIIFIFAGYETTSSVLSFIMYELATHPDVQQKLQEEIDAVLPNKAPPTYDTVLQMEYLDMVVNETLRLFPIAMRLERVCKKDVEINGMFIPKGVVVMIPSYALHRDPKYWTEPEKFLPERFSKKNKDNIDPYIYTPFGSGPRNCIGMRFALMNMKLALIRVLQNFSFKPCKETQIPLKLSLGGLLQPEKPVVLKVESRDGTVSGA

Sequence of Cytochrome P450 2C9 (P11712 whole entry): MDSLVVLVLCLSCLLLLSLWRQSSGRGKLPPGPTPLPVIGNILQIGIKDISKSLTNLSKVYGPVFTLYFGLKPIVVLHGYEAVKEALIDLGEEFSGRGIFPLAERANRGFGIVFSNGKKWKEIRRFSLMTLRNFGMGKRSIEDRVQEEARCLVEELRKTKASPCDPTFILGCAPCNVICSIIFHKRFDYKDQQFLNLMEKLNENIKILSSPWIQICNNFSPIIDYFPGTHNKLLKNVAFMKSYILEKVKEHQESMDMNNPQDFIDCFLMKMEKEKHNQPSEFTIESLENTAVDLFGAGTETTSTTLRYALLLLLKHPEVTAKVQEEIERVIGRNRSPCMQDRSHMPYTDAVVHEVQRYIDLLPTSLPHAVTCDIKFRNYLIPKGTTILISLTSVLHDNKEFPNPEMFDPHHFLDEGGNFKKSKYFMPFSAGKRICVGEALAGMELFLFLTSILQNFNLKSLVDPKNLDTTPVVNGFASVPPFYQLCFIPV
Sequence of Cytochrome P450 2D6 (P10635 whole entry): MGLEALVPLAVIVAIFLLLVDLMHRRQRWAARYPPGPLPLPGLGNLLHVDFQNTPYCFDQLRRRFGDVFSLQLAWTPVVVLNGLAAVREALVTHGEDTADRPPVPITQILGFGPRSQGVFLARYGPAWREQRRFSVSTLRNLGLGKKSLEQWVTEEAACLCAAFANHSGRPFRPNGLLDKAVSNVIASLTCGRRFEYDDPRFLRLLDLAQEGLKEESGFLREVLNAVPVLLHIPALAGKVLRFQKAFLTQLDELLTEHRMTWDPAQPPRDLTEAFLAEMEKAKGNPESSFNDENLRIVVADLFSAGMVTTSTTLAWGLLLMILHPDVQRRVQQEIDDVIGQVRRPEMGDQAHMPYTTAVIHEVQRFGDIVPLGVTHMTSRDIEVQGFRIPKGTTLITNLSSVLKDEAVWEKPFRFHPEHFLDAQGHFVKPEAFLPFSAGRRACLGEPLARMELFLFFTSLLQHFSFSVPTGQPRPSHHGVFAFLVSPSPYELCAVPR
Sequence of Cytochrome P450 2C19 (P33261 whole entry): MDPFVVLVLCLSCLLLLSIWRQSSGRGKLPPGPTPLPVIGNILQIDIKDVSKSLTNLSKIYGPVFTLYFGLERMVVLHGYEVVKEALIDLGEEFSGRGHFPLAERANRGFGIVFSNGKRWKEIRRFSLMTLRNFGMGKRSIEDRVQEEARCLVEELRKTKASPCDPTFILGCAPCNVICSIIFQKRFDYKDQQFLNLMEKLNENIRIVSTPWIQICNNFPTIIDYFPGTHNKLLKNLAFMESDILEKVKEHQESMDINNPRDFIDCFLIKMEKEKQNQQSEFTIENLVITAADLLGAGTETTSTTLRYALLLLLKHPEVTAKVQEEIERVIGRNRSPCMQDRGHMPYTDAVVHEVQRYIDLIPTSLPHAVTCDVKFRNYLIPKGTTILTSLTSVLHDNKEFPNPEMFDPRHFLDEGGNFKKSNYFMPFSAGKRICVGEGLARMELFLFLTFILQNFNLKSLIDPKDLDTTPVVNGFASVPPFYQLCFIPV

Take `COc1ccc2cc(C(c3ccc(F)cc3)n3cncn3)oc2c1` (stereo not drawn): the Activity entry in the data set on MDA-MB-231 and in the data set on MCF-10A was “Non-Toxic” throughout.

`CCC#CCOc1ccc2c(=O)c3ccc(Cn4ccnc4)cc3oc2c1`: the half-inhibitory concentration (IC50) (commonly the concentration needed to halve the response being measured) on Aromatase is 0.01 nM.

In turn, `CCC#CCOc1cc(Cn2ccnc2)c2oc3ccccc3c(=O)c2c1` registered a half-inhibitory concentration (IC50) at Aromatase of 0.77 nM.

In turn, `CCC#CCOc1cc(Cn2ccnc2)c2c(=O)c3ccccc3oc2c1` yielded an IC50 at Aromatase of 0.01 nM.

The compound `CC#CCOc1ccc2cc(C(c3ccc(F)cc3)n3cncn3)oc2c1` (stereo not drawn) displayed an IC50 at Aromatase of 4.1 nM.

Turning to `CC#CCOc1ccc2cc(C(c3ccc(Cl)cc3)n3cncn3)oc2c1` (stereo not drawn), the IC50 against Aromatase worked out at 0.53 nM.

`Oc1ccc(C(c2cc3cc(Cl)ccc3o2)n2cncn2)cc1` (stereo not drawn) gave a half-inhibitory concentration (IC50) at Aromatase of 30.3 nM.

On to `Oc1ccc2cc(C(c3ccc(F)cc3)n3cncn3)oc2c1` (stereo not drawn), for which the Activity result in the data set on MDA-MB-231 and in the data set on MCF-10A was “Non-Toxic” each time. Also, the IC50 at Aromatase came out at 0.39 nM.

In the case of `CCC#CCOc1ccc2cc(C(c3ccc(F)cc3)n3cncn3)oc2c1` (stereo not drawn), the Activity entry with MDA-MB-231 and in the data set with MCF-10A was “Non-Toxic” throughout. The IC50 against Aromatase was 0.51 nM.

Turning to `CCC#CCOc1ccc(C(c2cc3cc(Cl)ccc3o2)n2cncn2)cc1` (stereo not drawn), the half-inhibitory concentration (IC50) on Aromatase is more than 1000 nM.

Consider `Oc1ccc2oc(C(c3ccc(Cl)cc3)n3cncn3)cc2c1` (stereo not drawn), for which the IC50 on Aromatase is 5.67 nM.

With `CCC#CCOc1ccc2cc(C(c3ccc(C#N)cc3)n3cncn3)oc2c1` (stereo not drawn), the IC50 against Aromatase is 0.72 nM.

The compound `CCOc1ccc2cc(C(c3ccc(Cl)cc3)n3cncn3)oc2c1` (stereo not drawn) yielded an IC50 on Aromatase of 0.46 nM.

`COc1ccc(C(c2cc3cc(Cl)ccc3o2)n2cncn2)cc1` (stereo not drawn): the 50% inhibitory concentration (IC50) on Aromatase is more than 1000 nM.

For `COc1ccc2oc(C(c3ccc(Cl)cc3)n3cncn3)cc2c1` (stereo not drawn), on Aromatase, the IC50 amounted to 2.01 nM.

For `C#CCOc1ccc2cc(C(c3ccc(Cl)cc3)n3cncn3)oc2c1` (stereo not drawn), the IC50 on Aromatase turned out to be 1.03 nM.

For the compound `CC#CCOc1ccc2cc(C(c3ccc(C#N)cc3)n3cncn3)oc2c1` (stereo not drawn), the half-maximal inhibitory concentration (IC50) was more than 25000 nM on Cytochrome P450 2C9; 2880 nM at Cytochrome P450 1A2; 2170 nM at Cytochrome P450 2C19; 0.09 nM against Aromatase; more than 25000 nM on Cytochrome P450 2D6; more than 25000 nM at Cytochrome P450 3A4. For the same compound, the Activity result in the data set on MDA-MB-231 and with MCF-10A was “Non-Toxic” in each case.

Compound `CCC#CCOc1ccc2oc(C(c3ccc(Cl)cc3)n3cncn3)cc2c1` (stereo not drawn) gave a half-maximal inhibitory concentration (IC50) on Aromatase of 21 nM.

The compound `CCC#CCOc1ccc2cc(C(c3ccc(Cl)cc3)n3cncn3)oc2c1` (stereo not drawn) gave a 50% inhibitory concentration (IC50) on Aromatase of 2.76 nM.

On to `COc1cccc2c1C(=O)c1c(O)c3c(c(O)c1C2=O)C[C@@](O)(C(=O)CO)C[C@@H]3O[C@H]1C[C@H](N)[C@H](O)[C@H](C)O1` [DOXORUBICIN], for which the Activity entry in the data set with MDA-MB-231 and in the data set with MCF-10A was “Non-Toxic” each time.
